Reference: US20110177155A1, “METHODS OF DELIVERY OF AGENTS TO LEUKOCYTES AND ENDOTHELIAL CELLS” (IMMUNE DISEASE INSTITUTE, INC., priority 2007, published 2011)

Legend:
[1] = system: siRNA-mediated mRNA degradation; details: cited from earlier work
INF-β, OAS1 and STAT1 = assay: Interferon assay (quantitative RT-PCR of IFN-responsive genes in splenocytes); format: cell-based, mouse
Protocol: Spleenocytes (1×10^6 cells/ml) were mock treated or treated with β7 It-sNP and luciferase-siRNA (1000 pmol) or 5 μg/ml poly (I:C). After 48 h RNA was isolated and analyzed by quantitative RT-PCR for induction of IFN or interferon responsive genes as described below.
Total RNA (1 μg) isolated using RNeasy RNA isolation kit (Qiagen) or for tissues, RNAlater RNA stabilization reagent was used followed by RNeasy fibrous tissue mini kit (Qiagen) and reverse transcribed using Superscript III (Invitrogen) and random hexamers, according to the manufacturer's protocol. […] SYBR green (Molecular Probes) was used to detect PCR products. All reactions were done in a 25 μl reaction volume in triplicate. Primers for mouse GAPDH, STAT1, OAS1 and INF β were previously described (Song et al., 2005). The following primer pairs have been used: IL-12p40: Forward: 5′-[…]-3′ (SEQ ID NO:9); Reverse: 5′-[…]-3′ (SEQ ID NO:10); TNF α: Forward 5′-[…]-3′ (SEQ ID NO:11), Reverse 5′-[…]-3′ (SEQ ID NO:12); Cyclin D1: Forward 5′-CTTCCTCTCCAAAATGCCAG-3′ (SEQ ID NO:13), Reverse 5′-AGAGATGGAAGGGGGAAAGA-3′ (SEQ ID NO:14). PCR parameters consisted of 5 min of Taq activation at 95° C., followed by 40 cycles of PCR at 95° C.×20 sec, 60° C.×30 sec, and 69° C.×20 sec. Standard curves were generated and the relative amount of target gene mRNA was normalized to GAPDH mRNA. […]

Molecule	enhancement of siRNA-mediated mRNA degradation ([1]; with siRNA)	effect in mRNA degradation by itself ([1]; without siRNA)	induction of interferon-responsive genes (IRG: INF-β, OAS1, STAT1 mRNA) (INF-β, OAS1 and STAT1)
CCn1cc(C(=O)O)c(=O)c2cc(F)c(N3CCNCC3)nc21 [Enoxacin]	enhances siRNA-mediated degradation	essentially no effect	
poly (I:C)			induced
